Data: patent EP0238207B1, “Bactericidal mixtures” (PITMAN-MOORE INC., priority 1986, dated 1987)
Where two headings read alike, the source gives them in different places.

Assays:
a range of organisms = conditions: against a range of organisms; cited from earlier work
S. dublin strain M738 = assay: MIC by surface growth inhibition method, checkerboard two-fold dilution series; format: cell-based; conditions: for MIC: Salmonella enterica, M738
Procedure: Estimation of the minimum inhibitory concentrations (MICs) of Compound A and SDD, alone and together, was carried out by a surface growth inhibition method, using a "checkerboard" two-fold dilution series, with Compound A and SDD ranges of […] and 256 to 1µg/ml respectively. Thus, including the control plates, a total of 100 different combinations were used. Dilutions were made in Oxoid Isosensitest Agar with plate inoculation by an automatic inoculator using a 2µl inoculum yielding semi-confluent growth over a disc approx. 7 mm diameter. End points were judged to be the lowest concentrations completely or almost completely inhibiting growth.

[1] = test system: Salmonella dublin strain M738; assay: Synergy in experimental bovine salmonellosis, five repeated daily subcutaneous injections (Example 2); format: in vivo, calves; conditions: for Mortality: s.c., five days
From the text: In planning the investigation of possible synergy between Compound A and sulphadimidine (SDD), it was decided that seven treatment groups (including an untreated control group) of eight calves each would be necessary, but because of the impossibility of housing this required total number of calves (56) at one time in the available isolation accommodation, it was planned to carry out two duplicate experiments each using seven groups of four calves.
• 1) "Sodium Sulfamethazine Injectable Solution 25%" - Cyanamid. This commercial preparation contained 250 mg/ml of sodium SDD, equivalent to 232 mg/ml of SDD. • 2) Aqueous solution of SDD, 100 mg/ml in dilute NaOH. • 3) Aqueous solution of Compound A, 20 mg/ml as the hydrochloride.
On the day of infection, Day 0, each calf received an oral dose of 50 ml of a log-phase culture of Salmonella dublin strain M738 diluted to contain an estimated 10¹⁰ organisms, using the published technique (White et al 1981a). A viable count on the inoculum was carried out.
On the basis of Day 0 (am) bodyweights the calves were randomly allocated into 7 groups of 4.
Using Day 0 bodyweights, 3 calves of identical weights to the day 0 weights of the 3 eliminated calves were allocated to the appropriate groups, and the remaining […] were randomly allocated to the 7 groups as above.
Administration of compounds in all cases was by subcutaneous injection, using different sides of the animal for Compound A and SDD when both were given in groups 4, 5 and 6. The first of five consecutive daily injections was given 43 hours after […], the other following at 24 hour intervals.

[2] = Serum concentrations in infected calves (Bratton-Marshall method for sulphonamide, bio-assay for Compound A); format: in vivo
Procedure: Blood samples for assay of sulphonamide by the Bratton-Marshall method and for Compound A by bio-assay were collected before and 24 hours after the first injection, 2, 5 and 24 hours after the second injection, 24 hours after the fourth injection and 2, 5 and 24 hours after the fifth injection.

S.dublin = assay: Treatment of acute salmonellosis in calves, compound administered alone; format: in vivo; conditions: administered alone at dosages of up to 6 mg/kg
[3] = cattle older than about six weeks; cited from earlier work

Cc1cc(Cc2cnc(N)nc2N)c2cccnc2c1N(C)C [Compound A, 2,4-diamino-5-(8-dimethylamino-7-methyl-5-quinolylmethyl) pyrimidine]
in vitro antibacterial activity (a range of organisms): good
growth at 24 hours (S. dublin strain M738; Compound A 0.002 µg/ml, SDD 0 µg/ml): +
growth at 24 hours (S. dublin strain M738; Compound A 0.004 µg/ml, SDD 0 µg/ml): +
growth at 24 hours (S. dublin strain M738; Compound A 0.008 µg/ml, SDD 0 µg/ml): +
growth at 24 hours (S. dublin strain M738; Compound A 0.016 µg/ml, SDD 0 µg/ml): +
growth at 24 hours (S. dublin strain M738; Compound A 0.032 µg/ml, SDD 0 µg/ml): +
growth at 24 hours (S. dublin strain M738; Compound A 0.064 µg/ml, SDD 0 µg/ml): +
growth at 24 hours (S. dublin strain M738; Compound A 0.128 µg/ml, SDD 0 µg/ml): +
growth at 24 hours (S. dublin strain M738; Compound A 0.256 µg/ml, SDD 0 µg/ml): -
growth at 24 hours (S. dublin strain M738; Compound A 0.512 µg/ml, SDD 0 µg/ml): -
MIC (S. dublin strain M738; each substance alone, Oxoid Isosensitest Agar, read-out: MIC): 0.256 µg/mL
Mortality ([1]; Group 3: Compound A alone 6 mg/kg daily): 5 out of 8
therapeutic effect ([1]; Group 3: Compound A alone at 6 mg/kg daily): ineffective
serum concentrations of Compound A ([2]; Group 3: Compound A alone at 6 mg/kg daily s.c.): > 0.256 µg/mL
effect in treating acute salmonellosis (S.dublin) in calves (S.dublin): ineffective

Cc1cc(C)nc(NS(=O)(=O)c2ccc(N)cc2)n1 [SDD, sulphadimidine]
growth at 24 hours (S. dublin strain M738; Compound A 0 µg/ml, SDD 1 µg/ml): +
growth at 24 hours (S. dublin strain M738; Compound A 0 µg/ml, SDD 2 µg/ml): +
growth at 24 hours (S. dublin strain M738; Compound A 0 µg/ml, SDD 4 µg/ml): +
growth at 24 hours (S. dublin strain M738; Compound A 0 µg/ml, SDD 8 µg/ml): +
growth at 24 hours (S. dublin strain M738; Compound A 0 µg/ml, SDD 16 µg/ml): +
growth at 24 hours (S. dublin strain M738; Compound A 0 µg/ml, SDD 32 µg/ml): +
growth at 24 hours (S. dublin strain M738; Compound A 0 µg/ml, SDD 64 µg/ml): +
growth at 24 hours (S. dublin strain M738; Compound A 0 µg/ml, SDD 128 µg/ml): -
growth at 24 hours (S. dublin strain M738; Compound A 0 µg/ml, SDD 256 µg/ml): -
MIC (S. dublin strain M738): 128 µg/mL
therapeutic effect ([1]; Group 1: SDD alone 200/100 mg/kg daily): therapeutically ineffective
clinical recovery of surviving calves ([1]; Group 1: SDD alone 200/100 mg/kg, three surviving calves): very slow clinical recovery
bodyweight of surviving calves ([1]; Group 1: SDD alone 200/100 mg/kg, three surviving calves, Day 21 versus Day 0): none had regained its Day 0 bodyweight by Day 21
Mortality ([1]; Group 1: SDD alone, first dose 200 mg/kg, subsequent doses 100 mg/kg daily): 5 out of 8
Mortality ([1]; Group 2: SDD alone 30 mg/kg daily): 5 out of 8
serum concentrations of SDD ([2]; Group 1: SDD alone 200/100 mg/kg daily s.c., throughout the dosing period): > 128 µg/mL

COc1cc(Cc2cnc(N)nc2N)cc(OC)c1OC [trimethoprim]
oral bioavailability [3]: very poor
